Laboratory results as given in paper PMC12186843, “Targeting GABAergic Hypofunction Associated with Schizophrenia: Identification of α1β2γ2GABA‑A Receptor Ligands with Neuroprotective and Antipsychotic Properties” (ACS Chemical Neuroscience, 2025).

Key:
Wistar rats [1] = test: Prepulse inhibition (PPI) test with MK-801; format: in vivo, rat; details: i.p.
Experimental: All behavioral procedures were conducted using drug-naive male Wistar rats (Charles River, Sulzfeld, Germany), (n = 8/per group). Animals were housed in groups of four per standard plastic cage under controlled environmental conditions (temperature: 22 ± 1 °C, humidity: 60%, and a 12:12 light-dark cycle with lights on at 07:00 a.m.). Animals were obtained from the breeder 2 weeks prior to the initiation of behavioral procedures, during which time they were weighed and handled multiple times. Animals had ad libitum access to tap water and standard laboratory chow (Labofeed H, WPIK, Kcynia, Poland). […]
The PPI apparatus consisted of eight startle chambers (SR-LAB, San Diego Instruments, San Diego, CA, USA). […] Startle responses, reflecting the movement of animals within the cylinder following an acoustic stimulus, were measured with a piezoelectric transducer positioned beneath the frame. […]
The preliminary stimuli were followed by 60 trials of varying intensities presented in random order, with a mean intertrial interval (ITI) of 22.5 s. […] Startle amplitudes were calculated as the average response across 10 trials for each stimulation type. […] Startle responses (in manufacturer’s arbitrary units), and magnitudes of PPI (%) were analyzed with the aid of a one-way analysis of variance (ANOVA). […]

Wistar rats [2] = test: Amphetamine-induced hyperlocomotion; format: in vivo, rat; details: i.p., doses of 3.0 mg/kg and 10.0 mg/kg, amphetamine 1.0 mg/kg i.p., p < 0.01
Experimental: 8 (A). […] The dose of 0 mg/kg corresponds to subjects treated with vehicle and amphetamine (1.0 mg/kg, i.p.). Data are presented as the mean ± SEM (n = 8). One-way ANOVA F(3,28)=0.2, p > 0.05, one-way ANOVA F(3,28)=[…], p < 0.01**. (B). […] The dose of 0 mg/kg corresponds to subjects treated with vehicle and MK-801 (0.3 mg/kg, i.p.). Data are presented as the mean ± SEM (n = 8). ** p < 0.01, Newman-Keuls test, F(3,28)=5.29, p = 0.005. (C) Effects of compound 9, administered at doses ranging from 1 to 10 mg/kg, on spontaneous locomotor activity in rats. Data are presented as the mean ± SEM (n = 8). One-way ANOVA F(3,28) = 0.3, p > 0.05, one-way ANOVA F(3,28) = 6.7, p < 0.01*.
All behavioral procedures were conducted using drug-naive male Wistar rats (Charles River, Sulzfeld, Germany), (n = 8/per group). Animals were housed in groups of four per standard plastic cage under controlled environmental conditions (temperature: 22 ± 1 °C, humidity: 60%, and a 12:12 light-dark cycle with lights on at 07:00 a.m.). […]
All procedures were performed in a sound-attenuated experimental room between 9:00 a.m. and 3:00 p.m. […] Locomotor activity was measured in black octagonal cages (80 cm diameter, 30 cm height) amid dim lighting and constant white noise (65 dB). […] Locomotor activity (cm/30 min) was recorded and analyzed using an automated motion monitoring system (Videomot, TSE, Bad Homburg, Germany). […]

## Cc1ccc2nc(-c3ccc(F)cc3)c(CC(=O)N3CCCC3)n2c1.O=C(O)C(O)C(O)C(=O)O [Compound 17, 2-(4-Fluorophenyl)-6-methyl-3-(2-oxo-2-(pyrrolidin-1-yl)-ethyl)imidazo[1,2-a]pyridin-1-ium 3-carboxy-2,3-dihydroxy-propanoate]
Wistar rats [1]; F(3,28) = 1.66, p = 0.2
  Effect on basic startle response: did not affect significantly basic startle response
Wistar rats [1]; prestimulus of 84 and 90 dB, p = 0.82 and p = 0.72
  Effect on MK-801-induced PPI deficits: the effect did not reach statistical significance
Wistar rats [2]
  Effect on amphetamine-induced hyperlocomotion: significantly reduced amphetamine-induced hyperlocomotion
